Data: patent US9422267B2, “Fused pyrimidine compounds and use thereof” (Medivation Technologies, Inc., priority 2012, dated 2016)

Key:
[1] = system: over 50 of the panel of 72 non-kinase targets (Table B14); test: Extended panel screen against non-kinase targets (LeadProfilingScreen and CYP450 assays); type: binding; conditions: read-out: percent inhibition for over 50 of the non-kinase targets tested
Description: (§1) Compound no. The experiments were performed by Ricerca Biosciences (Painesville, Ohio) using the LeadProfilingScreen and CYP450 assays. Compound no. 8b was screened at a concentration of 1 μM. No significant hits were identified.

[2] = system: panel of 72 non-kinase targets (Table B14), incl. CYP450; test: as above; type: binding; conditions: 72 non-kinase targets, read-out: percent inhibition of all non-kinase targets
Description: as §1

ZR-75-1 = test: Cell Titer-Glo cell viability: ZR-75-1; type: cell-based; conditions: Homo sapiens; ZR-75-1, breast cancer; 72 h
Description: Compound nos. […] This panel of cell lines includes an ER− breast carcinoma, primary breast ductal carcinoma, prostate adenocarcinoma, mammary adenocarcinoma, mammary ductal carcinoma, mammary ductal carcinoma, ovary adenocarcinoma, ER+ breast carcinoma, ER-HER2+ mammary ductal carcinoma and an ER+ mammary ductal carcinoma, respectively.
(§2) This assay quantitates the ATP present in order to determine the number of viable cells in culture. Briefly, the compounds were incubated with the cells for 72 h, followed by cell lysis. The resulting luminescent signal is proportional to the amount of ATP present and, therefore, directly proportional to the number of cells present in culture.

ASPC-1 = test: Cell viability: pancreatic cancer cell line ASPC-1; type: cell-based; conditions: Homo sapiens, ASPC1; ASPC-1 pancreatic cancer cell line
Description: as §2
Analogous studies utilizing pancreatic cancer cell lines such as ASPC-1 and PANC-1 can be performed with compounds of the invention.

AMPK = test: Caliper kinase profiling: AMPK; type: biochemical
Description: The compound was tested at concentrations of 1.0×10^−8 and 1.0×10^−9 M in the RapidKinase192™ panel in duplicate. […] The screening was performed using the Caliper EZReader2, a 4-sipper LabChip, and ProfilerPro Kinase Selectivity Assay Kits 1 and 2. The assay measures the conversion of a fluorescent peptide substrate to a phosphorylated product. Briefly, the reaction mixture was introduced through a capillary sipper onto the microfluidic chip, where the substrate and product were electrophoretically separated and detected by laser-induced fluorescence. The time-dependent fluorescence signal indicates the extent of the reaction.

BMX = target: T1, BMX (Homo sapiens, UniProt P51813); test: Caliper kinase profiling: BMX; type: biochemical
T1 sequence (P51813 1-675): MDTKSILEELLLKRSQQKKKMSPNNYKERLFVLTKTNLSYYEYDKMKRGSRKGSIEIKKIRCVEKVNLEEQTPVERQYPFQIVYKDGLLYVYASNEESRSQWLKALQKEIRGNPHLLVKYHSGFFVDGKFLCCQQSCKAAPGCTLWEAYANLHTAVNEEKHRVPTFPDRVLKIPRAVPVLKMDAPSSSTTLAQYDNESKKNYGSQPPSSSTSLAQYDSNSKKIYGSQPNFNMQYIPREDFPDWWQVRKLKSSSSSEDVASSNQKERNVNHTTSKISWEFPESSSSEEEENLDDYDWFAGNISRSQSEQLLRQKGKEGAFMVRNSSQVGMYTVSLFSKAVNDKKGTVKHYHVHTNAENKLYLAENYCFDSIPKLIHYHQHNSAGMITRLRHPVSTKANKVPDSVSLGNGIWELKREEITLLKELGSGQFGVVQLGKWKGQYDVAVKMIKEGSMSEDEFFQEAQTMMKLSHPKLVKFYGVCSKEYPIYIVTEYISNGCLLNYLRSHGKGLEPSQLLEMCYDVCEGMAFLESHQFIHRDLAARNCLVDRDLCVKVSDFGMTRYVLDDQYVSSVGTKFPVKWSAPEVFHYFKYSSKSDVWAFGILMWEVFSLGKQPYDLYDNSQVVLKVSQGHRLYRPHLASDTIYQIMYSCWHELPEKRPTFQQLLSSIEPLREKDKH

EPHB2 = EPHB2 (Homo sapiens, UniProt P29323); test: Caliper kinase profiling: EPHB2; type: biochemical; conditions: EPHB2, 1 μM; read-out: Average % Inh @ 1 μM
Sequence of EPHB2 (P29323 19-1055): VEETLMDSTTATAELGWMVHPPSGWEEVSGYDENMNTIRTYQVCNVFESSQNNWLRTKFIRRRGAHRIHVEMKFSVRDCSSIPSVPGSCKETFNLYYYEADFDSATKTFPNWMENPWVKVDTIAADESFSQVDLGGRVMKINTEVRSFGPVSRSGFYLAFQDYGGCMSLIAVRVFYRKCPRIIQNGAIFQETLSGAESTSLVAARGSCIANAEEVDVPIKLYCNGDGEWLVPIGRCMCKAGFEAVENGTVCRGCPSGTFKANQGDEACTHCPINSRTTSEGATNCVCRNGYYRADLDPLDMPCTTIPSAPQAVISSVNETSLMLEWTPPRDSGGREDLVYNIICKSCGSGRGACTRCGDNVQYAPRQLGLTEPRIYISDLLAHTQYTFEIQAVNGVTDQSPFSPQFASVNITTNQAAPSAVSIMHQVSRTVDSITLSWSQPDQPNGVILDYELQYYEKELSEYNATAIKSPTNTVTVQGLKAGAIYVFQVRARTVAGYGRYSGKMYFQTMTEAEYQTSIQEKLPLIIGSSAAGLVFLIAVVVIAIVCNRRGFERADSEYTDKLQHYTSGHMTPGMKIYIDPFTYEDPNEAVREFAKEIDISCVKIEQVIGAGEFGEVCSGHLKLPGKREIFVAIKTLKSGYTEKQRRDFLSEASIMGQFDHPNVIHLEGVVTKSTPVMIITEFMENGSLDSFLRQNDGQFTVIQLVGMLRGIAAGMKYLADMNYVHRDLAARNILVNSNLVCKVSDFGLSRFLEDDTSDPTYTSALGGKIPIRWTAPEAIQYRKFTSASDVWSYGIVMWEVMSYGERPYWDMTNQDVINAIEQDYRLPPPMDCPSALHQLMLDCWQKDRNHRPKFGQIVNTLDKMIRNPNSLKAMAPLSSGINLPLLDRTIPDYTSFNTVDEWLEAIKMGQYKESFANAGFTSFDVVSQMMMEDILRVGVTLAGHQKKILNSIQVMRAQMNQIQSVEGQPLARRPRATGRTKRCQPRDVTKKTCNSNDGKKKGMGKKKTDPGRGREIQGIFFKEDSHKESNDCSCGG

EPHB4 = EPHB4 (Homo sapiens, UniProt P54760); test: Caliper kinase profiling: EPHB4; type: biochemical; conditions: EPHB4, 1 μM; read-out: Average % Inh @ 1 μM
Fer = Fer (Homo sapiens, UniProt P16591); test: Caliper kinase profiling: Fer; type: biochemical
Sequence of Fer (P16591 whole entry): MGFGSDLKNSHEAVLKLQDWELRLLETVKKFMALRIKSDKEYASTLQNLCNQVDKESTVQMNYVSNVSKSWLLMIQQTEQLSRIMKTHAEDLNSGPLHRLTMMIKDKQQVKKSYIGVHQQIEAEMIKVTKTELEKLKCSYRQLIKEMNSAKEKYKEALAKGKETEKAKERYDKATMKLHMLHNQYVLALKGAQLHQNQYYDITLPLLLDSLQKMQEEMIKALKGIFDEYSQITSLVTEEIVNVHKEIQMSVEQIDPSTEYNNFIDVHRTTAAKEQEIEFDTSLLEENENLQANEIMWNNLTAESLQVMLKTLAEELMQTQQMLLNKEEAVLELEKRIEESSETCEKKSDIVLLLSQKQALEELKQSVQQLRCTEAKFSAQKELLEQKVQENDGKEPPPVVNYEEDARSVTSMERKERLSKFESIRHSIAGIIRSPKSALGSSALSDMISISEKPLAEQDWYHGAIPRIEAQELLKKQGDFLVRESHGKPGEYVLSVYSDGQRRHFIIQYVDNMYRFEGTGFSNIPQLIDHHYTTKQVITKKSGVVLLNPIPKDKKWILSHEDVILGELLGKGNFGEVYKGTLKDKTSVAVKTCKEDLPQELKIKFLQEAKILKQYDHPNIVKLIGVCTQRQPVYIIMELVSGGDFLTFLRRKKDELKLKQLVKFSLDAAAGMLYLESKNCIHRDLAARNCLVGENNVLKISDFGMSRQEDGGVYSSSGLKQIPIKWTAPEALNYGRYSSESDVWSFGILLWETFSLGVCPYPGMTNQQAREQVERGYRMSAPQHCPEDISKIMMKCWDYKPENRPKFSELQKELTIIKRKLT

FES = FES (Homo sapiens, UniProt P07332); test: Caliper kinase profiling: FES; type: biochemical; conditions: read-out: Average % Inh @ 1 μM
FGFR1 = FGFR1 (Homo sapiens, UniProt P11362); test: Caliper kinase profiling: FGFR1; type: biochemical
Sequence of FGFR1 (P11362 22-822): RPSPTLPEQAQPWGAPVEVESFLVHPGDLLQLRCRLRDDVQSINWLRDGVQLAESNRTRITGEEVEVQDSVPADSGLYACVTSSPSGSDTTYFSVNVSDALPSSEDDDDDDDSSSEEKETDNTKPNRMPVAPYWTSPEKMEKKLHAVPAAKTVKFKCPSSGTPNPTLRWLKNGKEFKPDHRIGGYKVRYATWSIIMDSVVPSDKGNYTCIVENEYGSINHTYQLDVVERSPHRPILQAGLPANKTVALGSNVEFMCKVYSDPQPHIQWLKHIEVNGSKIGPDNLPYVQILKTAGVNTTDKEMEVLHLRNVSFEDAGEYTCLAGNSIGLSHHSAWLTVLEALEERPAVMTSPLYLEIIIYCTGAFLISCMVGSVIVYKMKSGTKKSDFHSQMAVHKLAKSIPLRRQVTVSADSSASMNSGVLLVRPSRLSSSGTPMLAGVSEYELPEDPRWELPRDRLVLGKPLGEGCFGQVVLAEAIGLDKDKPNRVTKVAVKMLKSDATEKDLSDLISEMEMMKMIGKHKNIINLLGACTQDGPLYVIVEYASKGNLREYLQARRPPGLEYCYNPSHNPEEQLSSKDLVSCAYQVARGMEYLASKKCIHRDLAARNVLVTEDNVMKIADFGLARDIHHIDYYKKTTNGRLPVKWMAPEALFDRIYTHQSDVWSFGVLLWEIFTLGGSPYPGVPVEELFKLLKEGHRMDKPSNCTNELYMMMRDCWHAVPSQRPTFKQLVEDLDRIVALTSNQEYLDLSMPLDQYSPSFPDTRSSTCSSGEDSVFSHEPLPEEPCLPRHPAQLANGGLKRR

Flt3(D835Y) = Flt3(D835Y) (Homo sapiens, UniProt P36888, D835Y); test: Caliper kinase profiling: Flt3(D835Y); type: biochemical; conditions: read-out: Average % Inh @ 1 μM
Hck = Hck (Homo sapiens, UniProt P08631); test: Caliper kinase profiling: Hck; type: biochemical
Sequence of Hck (P08631 whole entry): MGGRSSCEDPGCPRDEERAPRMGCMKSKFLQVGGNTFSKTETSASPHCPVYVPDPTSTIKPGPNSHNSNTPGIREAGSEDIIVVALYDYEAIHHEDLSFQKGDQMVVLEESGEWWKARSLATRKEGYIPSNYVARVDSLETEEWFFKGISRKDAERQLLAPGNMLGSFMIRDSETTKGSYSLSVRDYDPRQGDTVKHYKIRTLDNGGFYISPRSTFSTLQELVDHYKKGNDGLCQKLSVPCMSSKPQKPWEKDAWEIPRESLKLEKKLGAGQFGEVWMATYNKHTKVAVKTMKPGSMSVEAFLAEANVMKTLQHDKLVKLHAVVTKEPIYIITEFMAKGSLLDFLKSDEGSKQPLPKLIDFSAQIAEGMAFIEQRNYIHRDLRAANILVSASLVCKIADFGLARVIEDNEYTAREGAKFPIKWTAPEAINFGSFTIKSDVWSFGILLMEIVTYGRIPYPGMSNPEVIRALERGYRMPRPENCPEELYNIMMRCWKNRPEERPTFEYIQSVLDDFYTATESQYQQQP

ITK = ITK (Homo sapiens, UniProt Q08881); test: Caliper kinase profiling: ITK; type: biochemical; conditions: read-out: Average % Inh @ 1 μM
LYNB = LYNB (Homo sapiens, UniProt P07948); test: Caliper kinase profiling: LYNB; type: biochemical
Sequence of LYNB (P07948 1-491 isoform P07948-2): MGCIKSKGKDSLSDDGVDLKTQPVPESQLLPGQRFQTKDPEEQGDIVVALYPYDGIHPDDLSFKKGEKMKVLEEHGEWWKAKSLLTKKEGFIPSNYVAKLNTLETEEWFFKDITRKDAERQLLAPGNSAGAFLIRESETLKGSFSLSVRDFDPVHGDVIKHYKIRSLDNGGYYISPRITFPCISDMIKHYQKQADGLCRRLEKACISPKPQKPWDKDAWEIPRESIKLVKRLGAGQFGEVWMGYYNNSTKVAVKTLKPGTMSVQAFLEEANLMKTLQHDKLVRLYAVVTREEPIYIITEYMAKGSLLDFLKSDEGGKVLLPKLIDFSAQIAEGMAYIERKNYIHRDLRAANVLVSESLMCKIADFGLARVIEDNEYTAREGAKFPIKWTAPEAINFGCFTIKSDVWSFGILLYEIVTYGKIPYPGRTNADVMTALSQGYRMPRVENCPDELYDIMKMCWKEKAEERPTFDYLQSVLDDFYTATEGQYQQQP

PhKg2 = PhKg2 (Homo sapiens, UniProt P15735); test: Caliper kinase profiling: PhKg2; type: biochemical; conditions: PhKg2, 1 μM; read-out: Average % Inh @ 1 μM
RET(Y791F) = RET(Y791F) (Homo sapiens, UniProt P07949, Y791F); test: Caliper kinase profiling: RET(Y791F); type: biochemical
Sequence of RET(Y791F) (P07949 29-1114 Y791F): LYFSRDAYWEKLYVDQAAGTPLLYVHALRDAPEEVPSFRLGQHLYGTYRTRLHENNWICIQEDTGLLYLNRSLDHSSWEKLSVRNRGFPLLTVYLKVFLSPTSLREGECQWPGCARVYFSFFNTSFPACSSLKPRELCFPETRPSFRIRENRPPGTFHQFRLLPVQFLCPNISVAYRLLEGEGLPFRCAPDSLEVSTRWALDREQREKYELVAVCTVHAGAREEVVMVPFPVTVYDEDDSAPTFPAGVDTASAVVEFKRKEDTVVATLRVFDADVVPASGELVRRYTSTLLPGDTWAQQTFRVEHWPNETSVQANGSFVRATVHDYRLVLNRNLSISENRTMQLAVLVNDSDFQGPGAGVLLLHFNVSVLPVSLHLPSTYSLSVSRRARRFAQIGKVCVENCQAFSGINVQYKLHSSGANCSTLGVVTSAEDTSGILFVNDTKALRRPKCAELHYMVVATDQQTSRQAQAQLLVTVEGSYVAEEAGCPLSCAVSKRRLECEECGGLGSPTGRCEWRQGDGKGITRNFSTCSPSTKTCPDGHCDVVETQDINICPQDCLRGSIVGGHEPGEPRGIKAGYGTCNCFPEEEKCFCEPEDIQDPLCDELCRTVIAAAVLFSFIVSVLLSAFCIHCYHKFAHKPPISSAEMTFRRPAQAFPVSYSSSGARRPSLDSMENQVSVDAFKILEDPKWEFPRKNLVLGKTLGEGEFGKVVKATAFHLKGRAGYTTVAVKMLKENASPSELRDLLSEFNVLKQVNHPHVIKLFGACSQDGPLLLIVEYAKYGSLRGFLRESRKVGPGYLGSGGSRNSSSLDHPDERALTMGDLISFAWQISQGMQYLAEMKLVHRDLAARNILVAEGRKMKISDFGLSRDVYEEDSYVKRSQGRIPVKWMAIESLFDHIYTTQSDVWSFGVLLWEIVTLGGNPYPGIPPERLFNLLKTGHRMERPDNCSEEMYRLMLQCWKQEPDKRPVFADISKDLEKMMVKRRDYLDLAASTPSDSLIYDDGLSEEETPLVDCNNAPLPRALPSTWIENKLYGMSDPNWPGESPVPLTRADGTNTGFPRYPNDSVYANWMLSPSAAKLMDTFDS

[3] = 10 nM, read-out: Average % Inh @ 10 nM
[4] = 100 nM, read-out: Average % Inh @ 100 nM
[5] = 1 μM, read-out: Average % Inh @ 1 μM

Compound: CC(C)c1cc(Nc2nc(N3CCCC3C(=O)Nc3ccc(F)nc3)nc3c2CCC3)n[nH]1 (single isomer, unassigned) [Compound 8b]
- inhibition at 1 µM [1]: < 10%
- inhibition at 1 µM [2]: < 30%
- IC50 (ZR-75-1): < 100 µM
- IC50 (ASPC-1): 0.195 µM

Compound: O=C(Nc1ccc(F)nc1)C1CCCN1c1nc2c(c(Nc3cc(C4CC4)[nH]n3)n1)CCC2 (single isomer, unassigned) [Compound 2b, 1-(4-(5-cyclopropyl-1H-pyrazol-3-ylamino)-6,7-dihydro-5H-cyclopenta[d]pyrimidin-2-yl)-N-(6-fluoropyridin-3-yl)pyrrolidine-2-carboxamide]
- Average % Inh @ 10 nM (AMPK; 10 nM): + (+=Low)
- Average % Inh @ 100 nM (AMPK; 100 nM): ++ (++=Med)
- Average % Inh @ 1 μM (AMPK; 1 μM): +++ (+++=High)
- inhibition at 0.01 µM (BMX; [3]): < 39%
- inhibition at 0.1 µM (BMX; [4]): < 39%
- inhibition at 1 µM (BMX; [5]): 40 to 59%
- inhibition at 1 µM (EPHB2): > 60%
- inhibition at 1 µM (EPHB4): 40 to 59%
- inhibition at 0.01 µM (Fer; [3]): < 39%
- inhibition at 0.1 µM (Fer; [4]): > 60%
- inhibition at 1 µM (Fer; [5]): > 60%
- inhibition at 1 µM (FES): 40 to 59%
- inhibition at 0.01 µM (FGFR1; FGFR1, 10 nM, read-out: Average % Inh @ 10 nM): < 39%
- inhibition at 0.1 µM (FGFR1; FGFR1, 100 nM, read-out: Average % Inh @ 100 nM): < 39%
- inhibition at 1 µM (FGFR1; FGFR1, 1 μM, read-out: Average % Inh @ 1 μM): > 60%
- inhibition at 1 µM (Flt3(D835Y)): > 60%
- inhibition at 0.01 µM (Hck; [3]): < 39%
- inhibition at 0.1 µM (Hck; [4]): 40 to 59%
- inhibition at 1 µM (Hck; [5]): > 60%
- inhibition at 1 µM (ITK): 40 to 59%
- inhibition at 0.01 µM (LYNB; [3]): < 39%
- inhibition at 0.1 µM (LYNB; [4]): 40 to 59%
- inhibition at 1 µM (LYNB; [5]): > 60%
- inhibition at 1 µM (PhKg2): 40 to 59%
- inhibition at 0.01 µM (RET(Y791F); [3]): < 39%
- inhibition at 0.1 µM (RET(Y791F); [4]): 40 to 59%
- inhibition at 1 µM (RET(Y791F); [5]): > 60%
